Experimental data taken from patent publication US20160199434A1, “COMPOSITIONS AND METHODS FOR MODULATING DNA METHYLATION” (OHIO STATE INNOVATION FOUNDATION, priority 2013, published 2016).
“Also recorded” adds a separate entry of the source.

Key:
DNMT-3b [1] = experiment: DNMT-3b mRNA expression in lungs of normal mice after systemic administration; format: in vivo, mouse; conditions: i.p. 17.5 mg/kg three times per week for three weeks, vs DMSO
Protocol: FIGS. 14A-14C show the effects of systemic administration of AKB-6899. Mice were treated three times per week for three weeks with either i.p. AKB-6899 or i.p. DMSO. The lungs were removed and assayed to determine DNMT mRNA expression, percent CpG methylation, and fold change in mRNA. […] The data was standardized to 1.0 by the DMSO levels of the respective gene expression, (n=4 lungs per condition).

[2] = tested on: desmoplakin (DSP) gene promoter; experiment: Methylation-specific PCR of DSP promoter in PyMT breast cancer cells; format: cell-based, mouse
Protocol: (§1) FIGS. 3A-3E show the effect of AKB-6899 (25 μM) on methylation of the desmoplakin (DSP) gene promoter in PyMT breast cancer cells (3A), human MDA-MB-231 triple negative breast cancer cells (3B), human C8161.9 melanoma cells (3C), and human MCF-7 breast cancer cells (3D). In FIG. 3A, the DSP promoter was 100% unmethylated (AKB-6899) vs. 99.99% methylated (vehicle). In FIG. 3B, the DSP promoter was 99.62% unmethylated (AKB-6899) v. 99.89% (vehicle). In FIG. 3C, the DSP promoter was 99.90% unmethylated (AKB-6899) v. 42.04% (vehicle). In FIG. 3D, the DSP promoter was 92.48% unmethylated (AKB-6899) v. 98.48% (vehicle). In FIG. 3E, when compared to the vehicle (DMSO), treatment of PyMT cells with AKB-6899 increased DSP expression.
(§2) Because DSP is regulated by ER/PR expression, and because late-stage PyMT tumors lose ER/PR-positivity and heavily metastasize to the lymph nodes and lungs (Lin et al., 2003), the effects of AKB-6899 on more global events that regulate gene expression was evaluated. PyMT tumor cells in culture were treated with DMSO or AKB-6899. Methylation-specific PCR for CpG islands in the desmoplakin promoter were performed. […] Trypan Blue confirmed no cell death in AKB-6899 treated cells when compared to control cells. The experiment was repeated and RNA was isolated from the cells. RT-PCR was performed and the regulation of DNA methyltransferases (DNMTs) was evaluated. […] (FIG. 1A). The decrease in mRNA levels of DNMT-1 and DNMT-3a increased the mRNA level of DSP (FIG. 4A) and increased desmoplakin protein expression (FIG. 5A).

DSP promoter = experiment: Percent CpG methylation of DSP promoter in HeLa cells; format: cell-based, human; conditions: 5 or 25 μM, compared to DMSO and PBA (FIG. 6B)
Protocol: HeLa cervical cancer cells were left untreated, were treated with DMSO, were treated with 5-AZA, were treated with AKB-6899 (5 or 25 μM), or were treated with PBA (2 mM).

desmoplakin mRNA = experiment: Desmoplakin mRNA expression in cultured PyMT cells; format: cell-based, mouse
Protocol: as §1
FIGS. 4A-4B show desmoplakin mRNA expression in vitro and in vivo.

[3] = tested on: 23 different gene promoters; experiment: Percent methylation of 23 gene promoters in A549 adenocarcinoma; format: cell-based, human; conditions: A549, 10 μM and 50 μM, compared to DMSO
Protocol: FIGS. 11A-11D show the percent methylation for 23 different gene promoters in two types of human lung cancer cells—FIGS. 11A and 11B are directed at H1703 squamous cell carcinoma and FIG. 11C and FIG. 11D are directed at A549 adenocarcinoma. DMSO was used as a vehicle and was used as a control. […] The Dec/PBA condition represents a combination of 5 μM Decitabine (5-aza-2′deoxycytidine (5-AZA), which is a demethylating agent) and 2 mM […] (PBA, HDAC inhibitor). In all promoters tested, and in both types of lung cancer, AKB-6899 demethylated the gene promoters such that the level of % DNA methylation following AKB-6899 treatment was below the level of % DNA methylation of the DMSO-treated control cells (DMSO).

[4] = tested on: MDA-MB-231 human breast cancer cells; experiment: RNAseq of microRNAs and snoRNAs in MDA-MB-231 cancer cells; format: cell-based; conditions: MDA-MB-231 cells, compared to DMSO-treated cells
Protocol: The expression of various microRNAs and snoRNAs was evaluated following administration of AKB-6899 to MDA-MB-231 human breast cancer cells. In these cancer cells, AKB-6899 increased expression of several microRNAs, some of which target methylation regulators such as the DNMTs. AKB-6899 also regulated about 20 snoRNAs, some of which are known to guide methylation. Finally, the analysis identified over sixty (60) RNA transcripts in the AKB-6899 treated cancer cells, which transcriptions are yet to annotated. The AKB-6899 treated breast cancer cells were compared to DMSO-treated cancer cells.

PyMT tumor cells = experiment: Trypan Blue cell death check in PyMT tumor cells; format: cell-based; conditions: compared to control cells
Protocol: as §2

[5] = tested on: desmoplakin (DSP) gene promoter; experiment: Methylation-specific PCR of DSP promoter in MDA-MB-231 cells; format: cell-based, human
Protocol: as §1
To determine whether the decrease in DNMT expression and the increase in DSP expression were relevant in human cancer, the level of desmoplakin expression in MDA-MB-231 human triple negative breast cancer cells was determined. […] (FIG. 3B).

DNMT-3b [6] = experiment: DNMT-3b transcription in A549 lung cancer cells; format: cell-based, human; conditions: A549 cells (FIG. 10B)
Source text: In FIG. 10A, AKB-6899 inhibited DNMT-1, DNMT-3a, and DNMT-3b transcription in a dose-dependent manner in human squamous cell carcinoma lung cancer cells (H1703), in vitro. The DMSO-treated DNMT mRNAs are over 1.0, meaning the level of expression is higher than the housekeeping control gene, CAP1. In FIG. 10B, AKB-6899 inhibited DNMT-3a and DNMT-3b transcription in human adenocarcinoma lung cancer cells (A549). The DMSO-treated DNMT mRNAs are under 1.0, meaning the level of expression is lower than the housekeeping control gene, CAP1.

[7] = tested on: desmoplakin (DSP) gene promoter; experiment: Methylation of DSP promoter in C8161.9 melanoma cells; format: cell-based, human
Protocol: as §1
The gene expression signatures from the tumors of PyMT breast tumor-bearing mice that were treated with either vehicle or AKB-6899 were evaluated. […] Methylation-specific PCR on the desmoplakin promoter was performed. The level of hypomethylation was near complete.

DNMT-3b [8] = experiment: DNMT-3b mRNA level by RT-PCR in PyMT tumor cells; format: cell-based, mouse; conditions: PyMT tumor cells in culture
Protocol: as §2

Structure (SMILES): O=C(O)CNC(=O)c1ncc(-c2cccc(F)c2)cc1O [AKB-6899, {[5-(3-Fluorophenyl)-3-hydroxypyridine-2-carbonyl]amino}acetic acid]
- DNMT-3b expression in lungs (DNMT-3b [1]): inhibited
- DSP promoter unmethylated ([2]; PyMT breast cancer cells, 25 μM (FIG. 3A)): 100%
- desmoplakin promoter methylation after treatment ([2]; PyMT mouse breast cancer cells): 0.0%
- methylation state of DSP promoter CpG islands (in words) ([2]; PyMT tumor cells in culture): entirely unmethylated; also recorded: near complete
- demethylation of DSP promoter (percent CpG methylation) (DSP promoter): increase in demethylation
- DSP expression (desmoplakin mRNA; PyMT cells, compared to vehicle (DMSO) (FIG. 3E)): increased
- desmoplakin mRNA expression (desmoplakin mRNA; cultured PyMT cells, 10 μM, compared to DMSO (FIG. 4A)): significantly increases
- percent DNA methylation of 23 gene promoters [3]: decreased the percent of DNA methylation in a dose response fashion
- expression of microRNAs [4]: increased
- cell death by Trypan Blue (PyMT tumor cells): no cell death
- methylation state of DSP promoter CpG islands (in words) ([5]; MDA-MB-231 cells): almost entire demethylation; also recorded: near complete
- desmoplakin promoter methylation after treatment ([5]; MDA-MB-231 human triple negative breast cancer cells): 0.38%
- DSP promoter unmethylated ([5]; MDA-MB-231 triple negative breast cancer cells, 25 μM (FIG. 3B)): 99.62%
- DNMT-3b transcription (DNMT-3b [6]): inhibited
- DSP promoter unmethylated ([7]; C8161.9 melanoma cells, 25 μM (FIG. 3C)): 99.90%
- level of hypomethylation of desmoplakin promoter (in words) ([7]; C8161.9 melanoma tumor cells): near complete
- DNMT-3b mRNA level (DNMT-3b [8]): no difference
